In patent US20100196512A1, “Treatment of Non-Oral Biological Tissue with Chlorine Dioxide” (priority 2009, published 2010):

Key:
[1] = system: methicillin resistant Staphylococcus aureus (MRSA) biofilm; experiment: Kill of MRSA biofilm grown on ceramic disks by chlorine dioxide solution; type: cell-based
Description: (§1) Chlorine dioxide treatment involves exposing micro-organisms to chlorine dioxide for a period of time. Treatment conditions, often called the “dose or dosage” of chlorine dioxide, can be determined by calculating the integral of the chlorine dioxide concentration as a function of time, C(t), over the treatment time of use:
(§2) In systems where the chlorine dioxide concentration is generally constant over the treatment time (e.g., varies by less than ±10% relative) or varies linearly over the treatment time, an average chlorine dioxide concentration may be calculated by averaging the starting and ending concentrations and then multiplying that average chlorine dioxide concentration during an exposure period by the time of exposure (Average Concentration X Time). Dose is commonly given in units of ppm-minutes.
(§3) A series of experiments were conducted to estimate the dose of chlorine dioxide needed to kill bacterial biofilms consisting of Pseudomonas aeruginosa (PA), methicillin resistant Staphylococcus aureus (MRSA), or a combination of both.
(§4) Bacterial biofilms were grown for between 7 and 10 days on non-porous ceramic disks in a spinning disk biofilm reactor. The reactors were inoculated with PA, MRSA, or a mixture of MRSA and PA bacteria to produce PA, MRSA, or mixed PA/MRSA biofilms respectively.
(§5) Chlorine dioxide solutions were produced at different nominal concentrations using ASEPTROL® S-Tab 10 tablets, and the exact concentrations were then measured using a Hach Model 2400 UV/Vis spectrophotometer in accordance with the manufacturer's instructions. Pairs of biofilm-containing disks were immersed for different times in solutions of different chlorine dioxide concentrations, neutralized with dilute sodium thiosulfate solution, and then plated to determine the number of surviving bacteria on each disk. Two untreated disks were also exposed to neutralizing solution and plated to determine the starting bacterial counts. In all tests, the baseline bacterial counts were in the range of 10^7 to 10^7.5 colony-forming units per disk (cfu/disk). A one log reduction refers to reducing the cfu/disk by one order of magnitude, e.g., a reduction from 10^7.1 cfu/disk to 10^6.1 cfu/disk. Accordingly, a substantially complete kill is achieved if the log reduction of bacteria is about 7 to 7.5.
(§6) The table summarizes the test conditions used in the different experiments, and presents the results in terms of log reduction of the different bacterial organisms. In the case of mixed PA/MRSA biofilms, results are given as total bacteria.

[2] = system: Pseudomonas aeruginosa (PA) biofilm; experiment: Kill of PA biofilm grown on ceramic disks by chlorine dioxide solution; type: cell-based
Description: as §1, §2, §3, §4, §5, §6

[3] = system: mixed PA/MRSA biofilm (total bacteria); experiment: Kill of mixed PA/MRSA biofilm grown on ceramic disks by chlorine dioxide solution; type: cell-based, Staphylococcus aureus and Pseudomonas aeruginosa; conditions: for Log Reduction in Organism Count: MRSA + PA biofilm, total bacteria
Description: as §1, §2, §3, §4, §5, §6

With `[O][Cl+][O-]` [ClO2, chlorine dioxide] the “Log Reduction in Organism Count” value ([1]; Sample 1, exposure 1.0 minutes, ClO2 208 ppm, 208 ppm-min) was 5.5, the “Log Reduction in Organism Count” value ([1]; Sample 2, exposure 5.0 minutes, ClO2 204 ppm, 1020 ppm-min) was 7.1 and the “Log Reduction in Organism Count” value ([1]; Sample 3 (second line), exposure 30.0 minutes, ClO2 40 ppm, 1200 ppm-min) was 5.1. For the same molecule, the “Log Reduction in Organism Count” value ([1]; Sample 3, exposure 10.0 minutes, ClO2 45 ppm, 450 ppm-min) was 5.5, the “Log Reduction in Organism Count” value ([1]; Sample 4, exposure 30.0 minutes, ClO2 175 ppm, 5250 ppm-min) was 7.1 and the “dose for a kill of about 5 orders of magnitude (5 log)” value (“dose for a kill … (5 log)” below) ([1]; see Sample 1) was “greater than 200 ppm-min”. For the same molecule, the “Log Reduction in Organism Count” value ([2]; Sample 6, exposure 0.5 minutes, ClO2 200 ppm, 100 ppm-min) was 5.9, the “Log Reduction in Organism Count” value ([2]; Sample 7, exposure 5.0 minutes, ClO2 43 ppm, […]-min) was 5.7 and the “Log Reduction in Organism Count” value ([2]; Sample 8, exposure 5.0 minutes, ClO2 187 ppm, 935 ppm-min) was 7.5. For the same molecule, the “Log Reduction in Organism Count” value ([2]; Sample 9, exposure 10.0 minutes, ClO2 37 ppm, 370 ppm-min) was 7.5, the “Log Reduction in Organism Count” value ([2]; Sample 10, exposure 50.0 minutes, ClO2 35 ppm, 1750 ppm-min) was 7.5 and the “Log Reduction in Organism Count” value ([2]; Sample 11, exposure 50.0 minutes, ClO2 166 ppm, 8300 ppm-min) was 7.5. The “dose for a kill … (5 log)” value ([2]; see Sample 7) was “greater than 200 ppm-min”, the “Log Reduction in Organism Count” value ([3]; Sample 12, exposure 10.0 minutes, ClO2 52 ppm, 520 ppm-min) was 5.5 and the “Log Reduction in Organism Count” value ([3]; Sample 13, exposure 30.0 minutes, ClO2 52 ppm, 1560 ppm-min) was 7.4. For the same molecule, the “Log Reduction in Organism Count” value ([3]; Sample 14, exposure 1.0 minutes, ClO2 181 ppm, 181 ppm-min) was 5.1, the “Log Reduction in Organism Count” value ([3]; Sample 15, exposure 5.0 minutes, ClO2 160 ppm, 800 ppm-min) was 7.4 and the “Log Reduction in Organism Count” value ([3]; Sample 16, exposure 30.0 minutes, ClO2 160 ppm, 4800 ppm-min) was 7.4. For the same molecule, the “dose for a kill … (5 log)” value ([3]; mixed PA/MRSA biofilm, see Sample 12) was “greater than 200 ppm-min”.
